{"source": "patent US20030148377A1", "about": "“Binding compounds and methods for identifying binding compounds” (priority 2000, published 2003)", "type_in_all_cases": "cell-based", "key": {"[1]": {"tested_on": "human IL-2 promoter luciferase reporter in Jurkat cells", "assay": "IL-2 reporter gene analysis, PMA plus ionomycin (pathway that circumvents ZAP-70)", "conditions": "10 μM peptide; phorbol ester plus ionomycin; FIG. 2G", "protocol": "(§1) Penetratin-containing peptides (FIG. 2A; peptide 7 (SEQ ID NO: 11) or peptide 8 (SEQ ID NO: 12)) were dissolved in DMSO and diluted to 20 μM in 500 μl of serum-free RPMI1640 medium. Ten million Jurkat cells, suspended in 500 μl of serum-free RPMI1640, were added to the peptide solutions for diluted DMSO control and incubated for 30 min at 37° C. Peptide-pretreated cells were treated with 1 μg of the anti-CD3ε mAb at 4° C. for 10 min, followed by another 10 min incubation in the presence of 5 μg of rabbit anti-mouse Ig. Cells were activated by shifting the temperature to 37° C. for 2 min and subsequently lysed in 1% NP40 lysis buffer. […] Luciferase activities from lysates were measured using a Dual-Luciferase Reporter System and Monolight 2010 luminometer.\n(§2) Jurkat cells were electroporated at 250V, 800 μF settings (Invitrogen Life Technologies, Carlsbad, Calif.), in the presence of 10 μg of plasmid carrier DNA (pCAGGS vector), 100 ng of Renilla luciferase control vector (pRL null), and 2.5 μg of a luciferase reporter gene whose transcriptional activity is controlled by the human IL-2 promoter (IL-2-Luc). […] Luciferase activities from lysates were measured using a Dual-Luciferase Reporter System (Promega, Madison, Wis.) and Monolight 2010 luminometer (Analytical Luminescence Laboratory, San Diego, Calif.). […]"}, "[2]": {"tested_on": "Tyr phosphorylation of PLCγ1 or LAT in Jurkat cells", "assay": "Anti-CD3-dependent Tyr phosphorylation of PLCγ1 or LAT in Jurkat cells", "conditions": "CD3ε cross-linking", "protocol": "Penetratin-containing peptides (FIG. 2A; peptide 7 (SEQ ID NO: 11) or peptide 8 (SEQ ID NO: 12)) were dissolved in DMSO and diluted to 20 μM in 500 μl of serum-free RPMI1640 medium. Ten million Jurkat cells, suspended in 500 μl of serum-free RPMI1640, were added to the peptide solutions for diluted DMSO control and incubated for 30 min at 37° C. Peptide-pretreated cells were treated with 1 μg of the anti-CD3ε mAb at 4° C. for 10 min, followed by another 10 min incubation in the presence of 5 μg of rabbit anti-mouse Ig. Cells were activated by shifting the temperature to 37° C. for 2 min and subsequently lysed in 1% NP40 lysis buffer. Lysates were immunoprecipitated with either the 4G10 anti-phosphotyrosine mAb (FIG. 2B; lanes 1-5), or with anti-PLCγ1 antibody (FIG. 2B; lanes 6-10), or with anti-LAT antibody (FIG. 2D; lane 11-15), and immunoblotted with the HRP-conjugated anti-phosphotyrosine Ab, RC20H. Lanes 1, 2, 6, 7, 11 and 12 corresponded to untreated Jurkat cells; lysates in lanes 3, 8, and 13 were prepared from cells treated with DMSO; lysates in lanes 4, 9, and 14 were prepared from cells treated with peptide 7; lysates in lanes 5, 10, and 15 were prepared from cells treated with peptide 8. (−) indicates nonstimulated cells; (+) indicates stimulation by CD3ε cross-linking. Each blot was stripped and reprobed with anti-PLCγ1 antibody (FIG. 2C) or anti-LAT antibody (FIG. 2E). Jurkat cells were electroporated in the presence of 10 μg of plasmid carrier DNA, 100 ng of Renilla luciferase control vector, and 2.5 μg of a luciferase reporter gene. Transfectants were treated with 10 μM of peptide 7, peptide 8, or DMSO as described above. Treated cells were stimulated with plate-bound anti-CD3ε mAb and 10 ng/ml of PMA (phorbol 12-myristate-13-acetate; FIG. 2F), or 10 ng/ml of PMA plus 2 μM of ionomycin (FIG. 2G) at 37° C. for 2 hr. Luciferase activities from lysates were measured using a Dual-Luciferase Reporter System and Monolight 2010 luminometer. […]"}, "[3]": {"tested_on": "human IL-2 promoter luciferase reporter in Jurkat cells", "assay": "IL-2 reporter gene analysis, anti-CD3ε mAb plus PMA (ZAP-70-dependent pathway)", "conditions": "10 μM peptide; anti-CD3 plus phorbol ester as stimulant, 2 hr; FIG. 2F", "protocol": "as §1, §2"}}}
{"substance": "peptide 8: chimeric peptide with penetratin at the N terminus and peptide 4 at the C terminus (RQIKIWFQNRRMKWKKKLILFLLLL)", "values": [{"measurement": "effect on IL-2 reporter gene expression (in words)", "setting": "[1]", "value": "no effect on gene expression"}, {"measurement": "effect on anti-CD3-stimulated Tyr-phosphorylation of most proteins (in words)", "setting": "[2]; 30 min peptide pretreatment at 37° C., anti-phosphotyrosine blot, FIG. 2B", "value": "little effect on most of these proteins"}, {"measurement": "Tyr phosphorylation of LAT (in words)", "setting": "[2]; anti-LAT immunoprecipitates, FIG. 2D lane 15", "value": "reduced the Tyr phosphorylation"}, {"measurement": "Tyr phosphorylation of PLCγ1 (in words)", "setting": "[2]; anti-PLCγ1 immunoprecipitates, FIG. 2B lane 10", "value": "reduced the Tyr phosphorylation of PLCγ1"}, {"measurement": "inhibition of gene expression (IL-2 reporter)", "setting": "[3]", "value": "more than 70%"}]}
